Each cell line was assayed with COC1=CC=C(C=C1)CN2C=CC3=C2C=C(C=C3)C(=O)NO + O=C(CCCCCCC(=O)Nc1ccccc1)NO [Vorinostat] (partner 1 µM) (assay: relative viability (nuclei count vs DMSO), 5 days (fraction); higher = more cells survive). Details: first compound 0.08 µM.
How it was run: (§1)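 The day after seeding in 1536-well plates, lung cancer cell lines were treated by pin tool with a single drug, or with a fixed anchor-drug dose together with five library-drug doses (not always all listed) in √10 steps. After 5 days, a combined fix-and-stain solution (final 0.05% Triton X-100, 1% formaldehyde, 1 ug/ml Hoechst) was added. Nuclei counted on 4× images gave relative viability as treated counts over vehicle counts, reported as the median of duplicate plates.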

| Cell Line | relative viability |
| --- | --- |
| NCI-H2347 | 0.502 |
| NCI-H1355 | 0.223 |
| NCI-H1915 | 0.326 |
| SK-MES-1 | 1.04 |
| NCI-H23 | 0.338 |
| CAL-12T | 0.562 |

Same assay, conditions: first compound 0.253 µM

| Cell Line | relative viability |
| --- | --- |
| NCI-H2347 | 0.611 |
| HARA | 0.6 |
| NCI-H1355 | 0.695 |
| NCI-H1915 | 0.49 |
| SK-MES-1 | 1.14 |
| NCI-H23 | 0.649 |
| NCI-H661 | 0.807 |
| CAL-12T | 0.855 |
| NCI-H1944 | 0.677 |

Same assay, conditions: first compound 0.8 µM

| Cell Line | relative viability |
| --- | --- |
| NCI-H2347 | 0.736 |
| HARA | 0.484 |
| NCI-H1355 | 0.65 |
| NCI-H1915 | 0.48 |
| SK-MES-1 | 1.04 |
| NCI-H23 | 0.637 |
| NCI-H661 | 0.717 |
| CAL-12T | 0.821 |
| NCI-H1944 | 0.577 |
| NCI-H322M | 0.866 |

Same assay, conditions: first compound 2.53 µM

| Cell Line | relative viability |
| --- | --- |
| NCI-H2347 | 0.796 |
| HARA | 0.677 |
| NCI-H1355 | 0.625 |
| NCI-H1915 | 0.514 |
| SK-MES-1 | 1.08 |
| NCI-H23 | 0.584 |
| NCI-H661 | 0.747 |
| CAL-12T | 0.719 |
| NCI-H1944 | 0.603 |
| NCI-H322M | 0.888 |

Same assay, conditions: first compound 8 µM

| Cell Line | relative viability |
| --- | --- |
| NCI-H2347 | 0.559 |
| HARA | 0.59 |
| NCI-H1355 | 0.589 |
| NCI-H1915 | 0.492 |
| SK-MES-1 | 1.05 |
| NCI-H23 | 0.461 |
| NCI-H661 | 0.639 |
| CAL-12T | 0.787 |
| NCI-H1944 | 0.399 |
| NCI-H322M | 0.845 |

Each cell line was assayed with C[C@]1(c2nc3c(C(N)=O)cccc3[nH]2)CCCN1 [Veliparib] + Cc1cc(Nc2cc(N3CCN(C)CC3)nc(Sc3ccc(NC(=O)C4CC4)cc3)n2)n[nH]1 [Tozasertib] (partner 0.1 µM) in the same assay as above. Details: first compound 0.02 µM.
How it was run: as §1

| Cell Line | relative viability |
| --- | --- |
| NCI-H2347 | 0.55 |
| HARA | 0.119 |
| NCI-H1915 | 0.402 |
| SK-MES-1 | 0.972 |
| NCI-H23 | 0.38 |
| NCI-H661 | 0.349 |
| CAL-12T | 0.317 |
| NCI-H1944 | 0.261 |

Same assay, conditions: first compound 0.06325 µM

| Cell Line | relative viability |
| --- | --- |
| NCI-H2347 | 0.501 |
| HARA | 0.117 |
| NCI-H1355 | 0.534 |
| NCI-H1915 | 0.426 |
| SK-MES-1 | 0.903 |
| NCI-H23 | 0.429 |
| NCI-H661 | 0.363 |
| CAL-12T | 0.376 |
| NCI-H1944 | 0.253 |
| NCI-H322M | 0.425 |

Same assay, conditions: first compound 0.2 µM

| Cell Line | relative viability |
| --- | --- |
| NCI-H2347 | 0.492 |
| HARA | 0.117 |
| NCI-H1355 | 0.559 |
| NCI-H1915 | 0.413 |
| SK-MES-1 | 0.843 |
| NCI-H23 | 0.434 |
| NCI-H661 | 0.336 |
| CAL-12T | 0.327 |
| NCI-H1944 | 0.252 |
| NCI-H322M | 0.416 |

Same assay, conditions: first compound 0.6325 µM

| Cell Line | relative viability |
| --- | --- |
| NCI-H2347 | 0.553 |
| HARA | 0.0991 |
| NCI-H1355 | 0.507 |
| NCI-H1915 | 0.409 |
| SK-MES-1 | 0.821 |
| NCI-H23 | 0.381 |
| NCI-H661 | 0.329 |
| CAL-12T | 0.318 |
| NCI-H1944 | 0.251 |
| NCI-H322M | 0.499 |

Same assay, conditions: first compound 2 µM

| Cell Line | relative viability |
| --- | --- |
| NCI-H2347 | 0.541 |
| HARA | 0.129 |
| NCI-H1355 | 0.539 |
| NCI-H1915 | 0.394 |
| SK-MES-1 | 0.858 |
| NCI-H23 | 0.426 |
| NCI-H661 | 0.388 |
| CAL-12T | 0.369 |
| NCI-H1944 | 0.249 |
| NCI-H322M | 0.422 |

The cell lines below were run with COC1=CC=C(C=C1)CN2C=CC3=C2C=C(C=C3)C(=O)NO + Cc1nc(Nc2ncc(C(=O)Nc3c(C)cccc3Cl)s2)cc(N2CCN(CCO)CC2)n1 [Dasatinib] (partner 0.075 µM) in the same assay as above. Details: first compound 0.08 µM.
How it was run: as §1

| Cell Line | relative viability |
| --- | --- |
| NCI-H2347 | 0.248 |
| NCI-H1915 | 0.326 |
| SK-MES-1 | 0.475 |
| NCI-H23 | 0.877 |
| CAL-12T | 0.426 |

Same assay, conditions: first compound 0.253 µM

| Cell Line | relative viability |
| --- | --- |
| NCI-H2347 | 0.246 |
| HARA | 0.284 |
| NCI-H1355 | 0.764 |
| NCI-H1915 | 0.333 |
| SK-MES-1 | 0.363 |
| NCI-H23 | 0.775 |
| NCI-H661 | 0.985 |
| CAL-12T | 0.613 |
| NCI-H1944 | 0.215 |
| NCI-H322M | 0.255 |

Same assay, conditions: first compound 0.8 µM

| Cell Line | relative viability |
| --- | --- |
| NCI-H2347 | 0.337 |
| HARA | 0.256 |
| NCI-H1355 | 0.717 |
| NCI-H1915 | 0.314 |
| SK-MES-1 | 0.542 |
| NCI-H23 | 0.801 |
| NCI-H661 | 0.957 |
| CAL-12T | 0.478 |
| NCI-H1944 | 0.235 |
| NCI-H322M | 0.255 |

Same assay, conditions: first compound 2.53 µM

| Cell Line | relative viability |
| --- | --- |
| NCI-H2347 | 0.329 |
| HARA | 0.177 |
| NCI-H1355 | 0.698 |
| NCI-H1915 | 0.303 |
| SK-MES-1 | 0.396 |
| NCI-H23 | 0.784 |
| NCI-H661 | 0.802 |
| CAL-12T | 0.414 |
| NCI-H1944 | 0.237 |
| NCI-H322M | 0.262 |

Same assay, conditions: first compound 8 µM

| Cell Line | relative viability |
| --- | --- |
| NCI-H2347 | 0.325 |
| HARA | 0.189 |
| NCI-H1355 | 0.679 |
| NCI-H1915 | 0.27 |
| SK-MES-1 | 0.262 |
| NCI-H23 | 0.637 |
| NCI-H661 | 0.579 |
| CAL-12T | 0.408 |
| NCI-H1944 | 0.204 |
| NCI-H322M | 0.226 |

These cell lines were tested with COC1=CC=C(C=C1)CN2C=CC3=C2C=C(C=C3)C(=O)NO + CCNC(=O)c1noc(-c2cc(C(C)C)c(O)cc2O)c1-c1ccc(CN2CCOCC2)cc1 [Luminespib] (partner 0.01 µM) in the same assay as above. Details: first compound 0.08 µM.
How it was run: as §1

| Cell Line | relative viability |
| --- | --- |
| NCI-H2347 | 0.361 |
| NCI-H1915 | 0.646 |
| SK-MES-1 | 0.795 |
| CAL-12T | 0.163 |

Same assay, conditions: first compound 0.253 µM

| Cell Line | relative viability |
| --- | --- |
| NCI-H2347 | 0.383 |
| HARA | 0.552 |
| NCI-H1355 | 0.834 |
| NCI-H1915 | 0.812 |
| SK-MES-1 | 0.833 |
| NCI-H661 | 0.873 |
| CAL-12T | 0.233 |
| NCI-H1944 | 0.788 |
| NCI-H322M | 0.867 |

Same assay, conditions: first compound 0.8 µM

| Cell Line | relative viability |
| --- | --- |
| NCI-H2347 | 0.396 |
| HARA | 0.745 |
| NCI-H1355 | 0.776 |
| NCI-H1915 | 0.885 |
| SK-MES-1 | 0.609 |
| NCI-H23 | 0.226 |
| NCI-H661 | 0.883 |
| CAL-12T | 0.528 |
| NCI-H1944 | 0.791 |
| NCI-H322M | 0.909 |

Same assay, conditions: first compound 2.53 µM

| Cell Line | relative viability |
| --- | --- |
| NCI-H2347 | 0.552 |
| HARA | 0.111 |
| NCI-H1355 | 0.7 |
| NCI-H1915 | 0.84 |
| SK-MES-1 | 0.795 |
| NCI-H23 | 0.221 |
| NCI-H661 | 0.88 |
| CAL-12T | 0.452 |
| NCI-H1944 | 0.748 |
| NCI-H322M | 0.841 |

Same assay, conditions: first compound 8 µM

| Cell Line | relative viability |
| --- | --- |
| NCI-H2347 | 0.501 |
| HARA | 0.548 |
| NCI-H1355 | 0.522 |
| NCI-H1915 | 0.768 |
| SK-MES-1 | 0.504 |
| NCI-H23 | 0.204 |
| NCI-H661 | 0.765 |
| CAL-12T | 0.332 |
| NCI-H1944 | 0.728 |
| NCI-H322M | 0.664 |
